Reference: US20230364069A1, “METHOD FOR TREATING NON-ALCOHOLIC STEATOHEPATITIS THROUGH CO-ADMINISTRATION OF CURCUMIN DERIVATIVE AND TGF-B RECEPTOR INHIBITOR” (UNIVERSITY INDUSTRY FOUNDATION, YONSEI UNIVERSITY WONJU …, priority 2021, published 2023)

Experiments:
[1] = system: AML12 cells (mouse hepatocyte cell lines); test: Cytotoxicity of curcumin derivatives (MTT) with TGF-β treatment; format: cell-based; conditions: 2 ng/ml TGF-β; at concentrations other than 0.1 μM (1, 3, 5 μM); FIG. 1
Procedure: Cell experiments were performed by using AML12, […], and LX-2 cells, a human hepatic stellate cell.
AML12 cells were cultured in a culture medium made by adding 5 ml of insulin (ITS), 40 ng/ml of dexamethasone, 1% penicillin streptomycin (anti-anti), and 10% fetal bovine serum (FBS) to F-12 media (Corning Incorporated, USA, Arizona), a mixture of a DMEM medium and Ham's F-12 at a ratio of 50:50, which is used for culturing hepatocytes or prostate epithelial cells.
In order to confirm cytotoxicity, the cells of Example 1-1 were treated with 2 ng/ml of TGF-β, and then with curcumin (CUR), curcumin 5-8 (CURS-8), curcumin 4-8 (CUR4-8), and curcumin 5-14 (CURS-14) at 0.1, 1, 3, and 5 μM, respectively, for the same period of time. Thereafter, cells cultured in an incubator of 5% CO2 at 37° C. were stained with a tetrazolium dye capable of staining surviving cells (MTT), and absorbance was measured by using a spectrophotometer.
By a method described in Example 1-2, the numbers of surviving cells when curcumin (CUR) and curcumin derivatives (CUR5-8, CUR4-8, and CUR5-14) each were co-administered with TGF-β at respective concentrations were measured.

[2] = system: mouse hepatocyte cell lines (AML12); test: TGF-β-induced fibrosis, co-administration of curcumin derivative and EW-7197 (epithelial-mesenchymal conversion, BODIPY, α-SMA staining, Western blotting); format: cell-based; conditions: 2 ng/ml TGF-β, 24 hours, 1 μM Cur or Cur5-8, 10 μM EW-7197
Procedure: Fibrosis was induced in hepatocytes with TGF-β, a curcumin derivative and a TGF-β receptor inhibitor were co-administered, and then fibrosis and fat synthesis and degradation were checked.
Specifically, 2 ng/ml of TGF-β was administered to the cells of Example 1-1, the cells were divided into administration groups of vehicle (Veh), 1 μM curcumin (Cur), 1 μM curcumin 5-8 (Cur5-8), 0.5 μM EW-7197 (EW0.5), 10 μM EW-7197 (EW or EW10), 1 μM curcumin and 0.5 μM EW-7197 (EW0.5+Cur), 1 μM curcumin and 10 μM EW-7197 (EW+Cur or EW10+Cur), 1 μM curcumin 5-8 and 0.5 μM EW-7197 (EW0.5+Cur5-8), 1 μM curcumin 5-8 and 10 μM EW-7197 (EW+Cur5-8 or EW10+Cur5-8), respective samples were administered, and culturing was performed for 24 hours. The control group (Con) was not treated with either TGF-β or the sample. […] After washing with PBS 1×, stained cells were observed.
In addition, in order to check the degree of fibrosis of hepatocytes, the cells cultured for 24 hours were fixed with 4% paraformaldehyde and then stained by using α-SMA (Santa Cruz Biotechnology, Inc., Dallas, Texas, USA), an Alexafluor 488 (Cell Signaling Technology, Danvers, Massachusetts, USA) antibody, and DAPI (Abcam plc., Cambridge, MA, USA). The cells were mounted with a mounting solution (Fisher Scientific, Hampton, Rockingham, USA), the manufactured sample was photographed using a confocal microscope to obtain photographs of stained cells, and the degree of color development in the photographs of the stained cells was analyzed with the ImageJ program.
In addition, in order to confirm the degree of fibrosis of hepatocytes, the cells cultured for 24 hours were collected, and protein expressions of α-SMA, Collagen I (Coll), p-SMAD2, and p-SMAD3 were checked by Western blotting with fibrosis markers in the same method as described in <Example 1-3>.
In order to check a synergistic effect of inhibiting fibrosis caused by a TGF-β and inhibiting fat accumulation caused thereby in case of co-administration of a curcumin derivative (Cur5-8) and a TGF-β receptor inhibitor (EW-7197), epithelial-mesenchymal conversion of hepatocytes was confirmed through a cell experiment by the method described in Example 1-5, and BODIPY staining and α-SMA staining were performed. Also, protein expressions of α-SMA, Collagen I p-SMAD2, and p-SMAD3 were checked by Western blotting.

| SMILES | cytotoxicity (MTT) [1] | epithelial-mesenchymal conversion caused by TGF-β ([2]; FIG. 8) | liver fibrosis (α-SMA staining, fibrosis marker Western blotting) ([2]; FIGS. 8, 10, 11) |
| --- | --- | --- | --- |
| COc1cc(C#Cc2cncc(C#Cc3ccc(O)c(OC)c3)c2)ccc1O [Cur4-8, 4,4′-(3,5-Pyridinediyldi-2,1-ethynediyl)bis(2-methoxyphenol)] | cytotoxicity was high | – | – |
| COc1cc(/C=C/C(=O)CC(=O)/C=C/c2ccc(O)c(OC)c2)ccc1O [Cur, curcumin] | – | not inhibited | liver fibrosis was induced |
